{
  "source": "patent US20080166805A1",
  "about": "“Culturing human cells and tissues in an N-glycolylneuraminic acid-free environment” (The Regents of the University of California, priority 2005, published 2008)",
  "system": "Caco-2 cells",
  "assay": "Endocytosis inhibition experiments (Neu5Gc uptake in Caco-2 cells)",
  "type": "cell-based, human",
  "conditions": "2 h pre-treatment with drug, then 3 mM Neu5Gc",
  "experimental": "The sonicate was centrifuged at 75×g for 15 min., and the pellet obtained consisted primarily of nuclei and unbroken cells. […] A portion (20%) of the “total homogenate” fraction was taken for protein quantification and Sia analysis by DMB derivatization and HPLC analysis (as discussed below.) The remainder was centrifuged at 100,000×g for 1 h. The resulting pellet, called the “membrane” fraction, was then resuspended by sonication (15 sec.) in 200 μl of sodium acetate buffer, pH 5.5. The 100,000×g supernatant, called the “soluble” fraction was adjusted to 90% ethanol using absolute ice-cold ethanol, and placed overnight at −20° C. The flocculant precipitate, which represents the “soluble protein” fraction, was washed 3 times with 90% ice-cold ethanol and then resuspended in 200 μl of water. The supernatant fluid representing the cytosolic low molecular weight (LMW) fraction was dried and brought up in 100 μL with water prior to Sia analysis. All the Sias in these fractions were released with mild acid hydrolysis if necessary and then analyzed by HPLC after DMB derivatization. Protein quantification was performed on the total homogenate, membrane and soluble protein fractions by using the BCA protein assay kit from Pierce (Rockford, Ill.) In some experiments, the resulting data obtained for the Sia bound to the membrane fraction and to the soluble proteins were pooled and presented here as a High Molecular Weight (HMW) fraction. Sialic Acid Release, DMB Derivatization and HPLC Analysis—The bound Sias from the total homogenate, membrane and soluble protein fractions were released using 2M acetic acid hydrolysis, 3 h. at 80° C. The released Sias, or free Sias, contained in the soluble LMW fraction were passed through a Microcon® YM-10 filter (Millipore, Bedford, Mass.) prior to DMB derivatization, which was done according to Hara et al., 1989. […] The eluant was monitored by fluorescence. Quantification of Sias—For all HPLC chromatograms, the quantification of Sias was done by comparison with known quantities of DMB derivatized Neu5Gc and Neu5Ac used as standards and then reported in terms of pmoles of Sia. For total homogenate, membrane and cytosolic protein fractions, this number was expressed per mg of protein. Due to minor sample-to-sample variations in amounts and recoveries, the data in the Figures is presented as percent of Neu5Gc over total Sias, rather than as absolute amounts. Endocytosis Inhibition Experiments—Caco-2 or normal fibroblast cells were split and cultured in alpha-MEM media supplemented respectively with 20% or 15% human serum for 4 days before starting the endocytosis drug inhibition experiments in order to deplete any Neu5Gc derived from FCS. Cells were then pre-treated for 2 h. with the specific inhibitors under the same culture conditions. Fresh media containing the same amount of inhibitor and 3 mM of Neu5Gc was then added to the cells, which were incubated for 16 h or 3 days and finally harvested and fractionated as described above.",
  "data": [
    {"smiles": "N=C(N)NC(=O)c1nc(Cl)c(N)nc1N", "note": "[amiloride]", "values": [
      {"measurement": "Neu5Gc incorporation into membrane-bound glycoconjugates in the presence of inhibitor (percent of total Sia)", "result": 10, "unit": "%"}
    ]}
  ]
}
